Test results taken from patent US10730877B2, “4-Azaindole compounds” (BRISTOL-MYERS SQUIBB COMPANY, priority 2017, dated 2020).
Where two headings read alike, the source gives them in different places.

How the values were obtained:
human TLR7 = human TLR7 (Homo sapiens (Human), UniProt Q9NYK1); test: TLR7 inhibition reporter assay (HEK-Blue cells, SEAP reporter, gardiquimod stimulation); assay type: cell-based; settings: gardiquimod 7.5 μM
human TLR8 = human TLR8 (Homo sapiens (Human), UniProt Q9NR97); test: TLR8 inhibition reporter assay (HEK-Blue cells, SEAP reporter, R848 stimulation); settings: read-out: TLR8 IC50, R848 15.9 μM;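 further: SEAP under an IFN-β minimal promoter carrying five NF-κB and AP-1 sites, 22 h at 37 °C, doses 0.05 nM–50 µM, inhibition scaled between agonist-plus-DMSO and reference-inhibitor wells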
Chain of human TLR8 (Q9NR97 27-1041): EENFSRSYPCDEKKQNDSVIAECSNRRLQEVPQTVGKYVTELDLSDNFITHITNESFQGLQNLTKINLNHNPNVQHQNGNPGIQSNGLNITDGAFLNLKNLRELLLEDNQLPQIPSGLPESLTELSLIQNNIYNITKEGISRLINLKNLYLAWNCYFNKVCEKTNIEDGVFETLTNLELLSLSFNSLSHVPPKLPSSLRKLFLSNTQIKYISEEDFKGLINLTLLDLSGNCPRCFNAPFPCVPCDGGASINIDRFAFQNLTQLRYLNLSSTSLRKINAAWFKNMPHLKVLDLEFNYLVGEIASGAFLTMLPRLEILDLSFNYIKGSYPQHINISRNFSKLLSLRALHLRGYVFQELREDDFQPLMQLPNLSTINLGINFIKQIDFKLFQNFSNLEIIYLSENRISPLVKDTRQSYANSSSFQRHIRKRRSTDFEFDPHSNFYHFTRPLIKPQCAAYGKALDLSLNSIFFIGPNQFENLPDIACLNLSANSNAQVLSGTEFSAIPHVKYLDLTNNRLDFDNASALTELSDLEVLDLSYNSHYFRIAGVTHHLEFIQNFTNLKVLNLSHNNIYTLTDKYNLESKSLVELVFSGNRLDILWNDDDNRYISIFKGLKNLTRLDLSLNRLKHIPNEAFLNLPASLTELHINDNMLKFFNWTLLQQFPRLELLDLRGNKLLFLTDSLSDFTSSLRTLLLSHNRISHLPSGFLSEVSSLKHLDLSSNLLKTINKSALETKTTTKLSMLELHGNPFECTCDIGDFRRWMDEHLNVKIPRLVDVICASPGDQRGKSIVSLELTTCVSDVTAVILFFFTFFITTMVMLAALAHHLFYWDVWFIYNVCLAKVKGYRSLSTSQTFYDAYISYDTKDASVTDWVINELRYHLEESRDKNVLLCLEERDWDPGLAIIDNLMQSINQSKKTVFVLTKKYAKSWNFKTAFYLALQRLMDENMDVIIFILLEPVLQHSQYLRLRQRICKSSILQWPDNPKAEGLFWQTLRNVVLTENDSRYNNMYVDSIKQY

human TLR9 = human TLR9 (Homo sapiens (Human), UniProt Q9NR96); test: TLR9 inhibition reporter assay (HEK-Blue cells, SEAP reporter, ODN2006 stimulation);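 further: SEAP driven by IFN-β minimal promoter with five NF-κB and AP-1 sites, compounds 0.05 nM–50 µM in DMSO, 22 h, inhibition scaled between agonist plus DMSO and reference inhibitor wells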
Chain of human TLR9 (Q9NR96 26-1032): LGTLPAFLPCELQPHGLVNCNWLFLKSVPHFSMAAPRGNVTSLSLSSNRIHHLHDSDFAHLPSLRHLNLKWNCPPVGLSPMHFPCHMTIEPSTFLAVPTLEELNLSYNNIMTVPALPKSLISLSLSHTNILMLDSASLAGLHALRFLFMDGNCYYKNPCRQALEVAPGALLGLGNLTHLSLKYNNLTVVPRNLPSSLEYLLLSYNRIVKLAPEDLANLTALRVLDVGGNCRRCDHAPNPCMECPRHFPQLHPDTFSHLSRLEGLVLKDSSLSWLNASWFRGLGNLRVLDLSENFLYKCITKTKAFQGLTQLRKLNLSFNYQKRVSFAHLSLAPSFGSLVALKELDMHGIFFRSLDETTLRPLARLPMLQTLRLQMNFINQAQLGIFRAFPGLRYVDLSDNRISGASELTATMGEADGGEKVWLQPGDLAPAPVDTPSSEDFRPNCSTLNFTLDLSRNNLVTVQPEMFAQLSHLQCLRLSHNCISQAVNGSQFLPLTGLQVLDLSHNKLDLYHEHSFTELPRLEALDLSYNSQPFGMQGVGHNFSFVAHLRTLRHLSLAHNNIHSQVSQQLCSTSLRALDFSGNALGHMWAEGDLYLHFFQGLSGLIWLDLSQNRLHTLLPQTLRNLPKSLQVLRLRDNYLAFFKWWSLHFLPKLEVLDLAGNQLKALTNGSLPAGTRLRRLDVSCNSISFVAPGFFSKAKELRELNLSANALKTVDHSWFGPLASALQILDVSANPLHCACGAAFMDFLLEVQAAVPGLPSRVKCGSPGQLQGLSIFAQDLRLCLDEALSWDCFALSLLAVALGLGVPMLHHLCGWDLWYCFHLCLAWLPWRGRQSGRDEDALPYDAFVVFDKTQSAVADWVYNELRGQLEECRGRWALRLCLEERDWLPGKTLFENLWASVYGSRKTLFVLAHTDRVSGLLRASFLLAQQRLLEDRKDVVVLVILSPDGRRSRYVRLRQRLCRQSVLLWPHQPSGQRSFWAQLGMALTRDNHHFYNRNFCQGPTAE

[1] = HEK-Blue cells overexpressing human TLR7, SEAP reporter
[2] = HEK-Blue cells overexpressing human TLR8, SEAP reporter
[3] = read-out: TLR9 IC50, HEK-Blue cells overexpressing human TLR9, SEAP reporter, ODN2006 5 nM
[4] = read-out: TLR9 IC50, HEK-Blue cells, ODN2006 5 nM

Chain of human TLR7 (Q9NYK1 27-1049): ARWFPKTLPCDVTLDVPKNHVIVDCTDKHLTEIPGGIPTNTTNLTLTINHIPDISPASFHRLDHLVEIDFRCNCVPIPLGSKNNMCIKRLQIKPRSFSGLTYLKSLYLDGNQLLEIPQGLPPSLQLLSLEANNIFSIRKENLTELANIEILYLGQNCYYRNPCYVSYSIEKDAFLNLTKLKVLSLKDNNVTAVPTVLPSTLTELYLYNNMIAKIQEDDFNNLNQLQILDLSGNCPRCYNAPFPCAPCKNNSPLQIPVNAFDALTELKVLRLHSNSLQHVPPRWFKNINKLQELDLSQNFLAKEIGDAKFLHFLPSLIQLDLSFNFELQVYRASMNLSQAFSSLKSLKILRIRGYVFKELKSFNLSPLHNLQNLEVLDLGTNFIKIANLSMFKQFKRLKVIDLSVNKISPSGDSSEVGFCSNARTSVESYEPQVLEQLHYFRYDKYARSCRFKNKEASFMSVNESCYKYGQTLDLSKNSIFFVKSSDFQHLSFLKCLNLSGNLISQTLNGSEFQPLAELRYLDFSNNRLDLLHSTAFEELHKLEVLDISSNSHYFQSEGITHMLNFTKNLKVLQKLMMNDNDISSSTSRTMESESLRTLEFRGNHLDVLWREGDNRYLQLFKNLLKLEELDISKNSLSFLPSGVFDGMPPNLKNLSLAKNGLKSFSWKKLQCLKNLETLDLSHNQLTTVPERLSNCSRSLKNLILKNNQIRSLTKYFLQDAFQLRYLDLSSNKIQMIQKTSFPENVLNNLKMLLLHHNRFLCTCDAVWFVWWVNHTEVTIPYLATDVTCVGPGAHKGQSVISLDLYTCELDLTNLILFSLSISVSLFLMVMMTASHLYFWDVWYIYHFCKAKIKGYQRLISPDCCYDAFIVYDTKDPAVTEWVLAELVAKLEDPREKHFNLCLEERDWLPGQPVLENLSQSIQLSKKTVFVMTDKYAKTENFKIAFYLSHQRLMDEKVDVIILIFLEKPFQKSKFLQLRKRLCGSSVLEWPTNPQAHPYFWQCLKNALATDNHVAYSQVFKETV

IC50 (human TLR7; [1])	IC50 (human TLR8; [2])	IC50 (human TLR9; [3])	IC50 (human TLR9)	IC50 (human TLR7; HEK-Blue cells)	IC50 (human TLR8; HEK-Blue cells)	IC50 (human TLR9; [4])	SMILES
1.9 nM	5.4 nM	5220 nM					Cc1c(-c2[nH]c3ccc(N4C[C@@H]5C[C@H]4CN5C4CCOCC4)nc3c2C(C)C)cn2ncnc2c1C [Example 780]
9.4 nM	4.9 nM	12300 nM					Cc1c(-c2[nH]c3ccc(N4C[C@@H]5C[C@H]4CN5Cc4cn(C)nn4)nc3c2C(C)C)cn2ncnc2c1C [Example 787]
3 nM	4.6 nM	2710 nM					Cc1c(-c2[nH]c3ccc(N4C[C@H]5C[C@@H]4CN5C(=O)CCN(C)C)nc3c2C(C)C)cn2ncnc2c1C [Example 773]
3.7 nM	10 nM	3170 nM					Cc1c(-c2[nH]c3ccc(N4CCC(N(C)Cc5ncccn5)CC4)nc3c2C(C)C)cn2cnnc2c1C [Example 78]
13 nM			4240 nM				CCCN(CCC)C1CCC(Oc2ccc3[nH]c(-c4cc(OC)c5ncnn5c4)c(C(C)C)c3n2)CC1 (centres unmarked) [Example 605, 4-((3-isopropyl-2-(8-methoxy-[1,2,4]triazolo[1,5-a]pyridin-6-yl)-1H-pyrrolo[3,2-b]pyridin-5-yl)oxy)-N,N-dipropylcyclohexan-1-amine]
8.4 nM	23 nM	177 nM					COc1cc(-c2[nH]c3ccc(CCC4CN(Cc5c[nH]nn5)C4)nc3c2C(C)C)cn2ncnc12 [Example 688]
1.8 nM	3.9 nM	8380 nM					Cc1c(-c2[nH]c3ccc(N4C[C@@H]5C[C@H]4CN5C(C)C)nc3c2C(C)C)cn2ncnc2c1C [Example 783]
0.72 nM	4.6 nM	4920 nM					Cc1cc(-c2[nH]c3ccc(C4CCN(CC(N)=O)CC4)nc3c2C(C)C)cn2ncnc12 [Example 559]
3.8 nM	4.4 nM	8450 nM					Cc1c(-c2[nH]c3ccc(N4C[C@@H]5C[C@H]4CN5CCC(N)=O)nc3c2C(C)C)cn2ncnc2c1C [Example 775]
3.8 nM	2.6 nM	4580 nM					Cc1c(-c2[nH]c3ccc(N4C[C@H]5C[C@@H]4CN5CCC(N)=O)nc3c2C(C)C)cn2ncnc2c1C [Example 763]
6 nM	5.3 nM	13100 nM					Cc1c(-c2[nH]c3ccc(N4C[C@@H]5C[C@H]4CN5CCC(=O)N(C)C)nc3c2C(C)C)cn2ncnc2c1C [Example 776]
				0.55 nM	1.2 nM	22600 nM	Cc1c(-c2[nH]c3ccc(N4C[C@@H](C)N(CCCS(C)(=O)=O)C[C@@H]4C)nc3c2C(C)C)cn2ncnc2c1C [Example 846]
8.5 nM	3.7 nM	474 nM					CC(C)c1c(-c2cn(CC#N)c3ncccc23)[nH]c2ccc(C3CCC(NC4CCOCC4)CC3)nc12 (centres unmarked) [Example 274]
				10 nM	3.6 nM	6940 nM	Cc1c(-c2[nH]c3ccc(C4CC5(C4)CN(C(C)C)C5)nc3c2C(C)C)cn2ncnc2c1C [Example 1023]
7.7 nM	12 nM	14700 nM					Cc1c(-c2[nH]c3ccc(N4C[C@H]5C[C@@H]4CN5C(C)C)nc3c2C(C)C)cn2ncnc2c1C [Example 786]
7.3 nM	11 nM	34500 nM					Cc1c(-c2[nH]c3ccc(N4C[C@@H]5C[C@H]4CN5C4COC4)nc3c2C(C)C)cn2ncnc2c1C [Example 779]
11 nM	24 nM	18200 nM					Cc1c(-c2[nH]c3ccc(N4C[C@H]5C[C@@H]4CN5C4CCS(=O)(=O)CC4)nc3c2C(C)C)cn2ncnc2c1C [Example 770]

IC50 (human TLR7; [1])	IC50 (human TLR8; [2])	IC50 (human TLR9; [3])	IC50 (human TLR9)	IC50 (human TLR7; HEK-Blue cells)	IC50 (human TLR8; HEK-Blue cells)	IC50 (human TLR9; [4])	SMILES
3.7 nM	5.7 nM	18600 nM					Cc1c(-c2[nH]c3ccc(N4C[C@@H]5C[C@H]4CN5CC(N)=O)nc3c2C(C)C)cn2ncnc2c1C [Example 774]
0.86 nM	1.2 nM	3510 nM					Cc1c(-c2[nH]c3ccc(N4C[C@H]5C[C@@H]4CN5CC#N)nc3c2C(C)C)cn2ncnc2c1C [Example 766]
120 nM	40 nM	228 nM					CC(C)c1c(-c2cn(CCS(C)(=O)=O)c3ncccc23)[nH]c2ccc(C3CCC(NC4CCOCC4)CC3)nc12 (centres unmarked) [Example 271]
5.4 nM	2.9 nM	8300 nM					Cc1c(-c2[nH]c3ccc(N4C[C@H]5C[C@@H]4CN5CCC(=O)N(C)C)nc3c2C(C)C)cn2ncnc2c1C [Example 767]
9.2 nM	7.4 nM	14800 nM					Cc1c(-c2[nH]c3ccc(N4C[C@@H]5C[C@H]4CN5CCS(C)(=O)=O)nc3c2C(C)C)cn2ncnc2c1C [Example 777]
				0.53 nM	1.6 nM	8120 nM	Cc1c(-c2[nH]c3ccc(N4CCN(C(=O)CN(C)C)[C@H](C)C4)nc3c2C(C)C)cn2ncnc2c1C [Example 849]
2.9 nM	9.4 nM	4530 nM					Cc1c(-c2[nH]c3ccc(N4C[C@@H]5C[C@H]4CN5C(=O)CN(C)C)nc3c2C(C)C)cn2ncnc2c1C [Example 784]
11 nM	18 nM	14400 nM					Cc1c(-c2[nH]c3ccc(N4C[C@@H]5C[C@H]4CN5C4CCS(=O)(=O)CC4)nc3c2C(C)C)cn2ncnc2c1C [Example 781]
3.8 nM	8.6 nM	18300 nM					Cc1c(-c2[nH]c3ccc(N4C[C@H]5C[C@@H]4CN5CC(N)=O)nc3c2C(C)C)cn2ncnc2c1C [Example 762]
0.88 nM	0.79 nM	2060 nM					CCN(CCS(C)(=O)=O)C1CCC(c2ccc3[nH]c(-c4cn5ncnc5c(C)c4C)c(C(C)C)c3n2)CC1 (centres unmarked) [Example 460]
8 nM	13 nM	4680 nM					Cc1c(-c2[nH]c3ccc(N4C[C@@H]5C[C@H]4CN5C(=O)CCN(C)C)nc3c2C(C)C)cn2ncnc2c1C [Example 785]
5.6 nM	3.5 nM	10300 nM					Cc1c(-c2[nH]c3ccc(N4C[C@H]5C[C@@H]4CN5CCCS(C)(=O)=O)nc3c2C(C)C)cn2ncnc2c1C [Example 765]
				0.91 nM	1.9 nM	3650 nM	Cc1c(-c2[nH]c3ccc(C4CC5(C4)CN(C)C5)nc3c2C(C)C)cn2ncnc2c1C [Example 1022]
6.4 nM	9.6 nM	21000 nM					Cc1c(-c2[nH]c3ccc(N4C[C@H]5C[C@@H]4CN5C4COC4)nc3c2C(C)C)cn2ncnc2c1C [Example 768]
2.7 nM	2.3 nM	7910 nM					Cc1c(-c2[nH]c3ccc(N4C[C@@H]5C[C@H]4CN5CCCS(C)(=O)=O)nc3c2C(C)C)cn2ncnc2c1C [Example 778]
1.9 nM	2.8 nM	14400 nM					Cc1c(-c2[nH]c3ccc(N4C[C@H]5C[C@@H]4CN5CCS(C)(=O)=O)nc3c2C(C)C)cn2ncnc2c1C [Example 764]

SMILES	IC50 (human TLR7; [1])	IC50 (human TLR8; [2])	IC50 (human TLR9; [3])	IC50 (human TLR9)	IC50 (human TLR7; HEK-Blue cells)	IC50 (human TLR8; HEK-Blue cells)	IC50 (human TLR9; [4])
Cc1c(-c2[nH]c3ccc(N4C[C@H]5CCC[C@@H](C4)N5CCS(C)(=O)=O)nc3c2C(C)C)cn2ncnc2c1C [Example 751]	13 nM	7.3 nM	26000 nM				
Cc1c(-c2[nH]c3ccc(N4[C@@H]5CC[C@H]4CN(CCC(N)=O)C5)nc3c2C(C)C)cn2ncnc2c1C [Example 749]	2.9 nM	2.6 nM	14900 nM				
Cc1c(-c2[nH]c3ccc(N4C[C@H]5CCC[C@@H](C4)N5C(=O)CN(C)C)nc3c2C(C)C)cn2ncnc2c1C [Example 750]	1.2 nM	3.7 nM	6140 nM				
